# Laboratory results: US20160024051A1, “SALTS AND SOLID FORMS OF ISOQUINOLINONES AND COMPOSITION COMPRISING AND METHODS OF USING THE SAME” (INFINITY PHARMACEUTICALS, INC., priority 2013, published 2016)
# Structures can show the parent of a compound that is named as a salt. Where two headings read alike, the source gives them in different places.
# Legend:
# [1] = Gravimetric vapour sorption (GVS); format: physicochemical
# Summary of the method: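 Moisture sorption isotherm at 25° C, 0-90% RH in 10% RH steps, 2 scans giving one full cycle, starting from 40% RH. Each step equilibrated 1-4 h until mass within 5% of predicted asymptote; solid re-checked by XRPD afterwards.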
# [2] = Solubility of free base hydrate and salts versus pH (Table 24); format: physicochemical
# [3] = Dissolution; format: physicochemical
# Protocol: The dissolution rate for the hydrate was about 80% in 15 min at pH 1.2 and about 20% in 60 min at pH 2.5. The dissolution rate of the bis-sulfuric acid salt was 100% in 15 min at both pH 1.2 and pH 2.5.
# [4] = 2-Week comparative stability studies; format: physicochemical; conditions: 2 weeks; for change in appearance: 5° C. (closed), ambient (closed), ambient (closed-exposed to light), ambient (open), 60° C. (closed), RT/75% RH (open), 40° C./75% RH (open); for change of water content, as determined by KF: all seven storage conditions
# Protocol: (closed); (ii) ambient (closed); (iii) ambient (closed-exposed to light); (iv) ambient (open); (v) 60° C. (closed); (vi) RT/75% RH (open); and (vii) 40° C./75% RH (open).
# [5] = Polymorphism study: maturation (temperature cycling RT to 50° C.) in solvents, XRPD; format: physicochemical
# Protocol: One of 21 solvents was added to each vial in a number of aliquots (up to 30 volumes), with shaking. All the samples were then placed under maturation between RT to 50° C. (4 hours at each temperature) for 3 days. After maturation the samples were analysed by XRPD. Clear solutions were cooled to −20° C. (freezer). If no precipitation occurred samples were evaporated at RT.
# Samples were placed under maturation between RT-50° C. (4 hours cycle) for 3 days. After maturation the samples were analyzed by XRPD. Clear solutions were then cooled to −20° C. (freezer). If no precipitation occurred, samples were evaporated at RT.
# The corresponding solvents and solvent mixtures were added in portions of (a total of) 5, 10, 20, and 30 volumes at 50° C., with shaking, aiming for clear solutions. After each addition, the vials were allowed to shake for 20 minutes, after which observations were made. Solutions were allowed to evaporate, whereas slurries were set for 8 hour temperature cycling maturation, between RT and 50° C., for 5 days.
# The oils obtained by solvent evaporation were used for the maturation screen. Anhydrous solvents (5 volumes; 100 μL) were used in order to minimise the amount of water present. Any solutions were allowed to slowly evaporate, whereas slurries were set for 8 hour temperature cycling maturation, between RT and 50° C. […] These were matured for a further 24 hours before performing XRPD analysis.
# The selected solvents and solvent mixtures (5 to 20 volumes) were added with stirring. Any solutions were allowed to slowly evaporate, whereas slurries were set for 8 hour temperature cycling maturation, between RT and 50° C., for 2 days.
# Crystals were ground in order to analyse them by XRPD. Suspensions were set for temperature cycling for a total of five days after which time XRPD analysis was carried out.
# [6] = Stability of Hydrate Form 2: maturation in water or acetic acid: water 1:3 at constant temperature; format: physicochemical; conditions: 40 hours
# Protocol: Both solids obtained from maturation at 25° C.
# [7] = Storage at 25° C./93% RH for 1 week, re-analysis by XRPD/HPLC; format: physicochemical; conditions: 1 week
# [8] = Solubility assessment using FB Hydrate Form 2; format: physicochemical
# Protocol: The best solvent systems (clear solutions) were methanol:anisole 1:1 and DMSO (10 volumes, at RT), dioxane (10 volumes, 50° C.), chloroform (20 volumes, RT). […]
# [9] = Density and flowability (Hausner ratio, Carr index); format: physicochemical
# From the text: The Hausner ratio and the Carr index are correlated to the flowability of a powder or granular material. […] The flowability of both salts are acceptable for manufacturing.
# [10] = Storage at 40° C./75% RH (elevated humidity) for 1 week, re-analysis by XRPD/HPLC; conditions: salt screen solids, 1 week, XRPD pattern or observation
# Protocol: The crystalline solids were filtered, dried at ambient conditions, and stored at 40° C./75% RH for 1 week and analyzed by ^1H NMR/IC.
# Samples from the screen using amorphous free base Compound 1 were analysed by ^1H-NMR and DSC, and re-analysis by XRPD was also carried out after drying at 50° C./vacuum and storage at 40° C./75% RH (the same sample was dried and stored at elevated humidity).
# [11] = Thermodynamic aqueous solubility; format: physicochemical; conditions: salts scaled-up at 0.5 gram
# [12] = Solubility of bis-sulfuric acid salt Form 1 in solvents at 50° C.; format: physicochemical
# Protocol: Bis-Sulfuric acid salt Form 1 of Compound 1 (ca. 35 mg) was weighed into vials. The corresponding solvents and solvent mixtures were added in portions of (a total of) 5, 10, 20, and 30 volumes at 50° C., with shaking, aiming for clear solutions. After each addition, the vials were allowed to shake for 20 minutes, after which observations were made. Solutions were allowed to evaporate, whereas slurries were set for 8 hour temperature cycling maturation, between RT and 50° C., for 5 days.
# [13] = PK properties in non-clinical animal species (all species); format: in vivo, CD-1 mouse, Wistar rat, Cyno monkey, Beagle dog; conditions: animal pharmacology models and non-clinical toxicology species
# Protocol: For example, Compound 1 bis-hydrogen sulfate monohydrate was evaluated in CD-1 mouse, Wistar rat, Cyno monkey, and Beagle dog. Cross species allometric scaling of CL (drug clearance) and Vss (volume at steady state) predicts low CL, high Vss and long T112 for Compound 1 in humans.
smiles,measurement,setting,value
COc1cc(-c2cccc3cc([C@H](C)Nc4nc(N)ncc4C#N)n(-c4ccccc4)c(=O)c23)ccn1 [Form 2 of the free base of Compound 1],GVS: changes in the XRPD after the experiment,[1],very slight changes
same,GVS: moisture uptake on loading,[1]; between 40-50% RH,1 % w/w
same,GVS: moisture content on desorption,[1]; between 90-10% on desorption,5.7 % w/w
same,Solubility,"[2]; 0.1N HCl, 37° C., at saturation",16000 µg/mL
same,Solubility,[2]; Simulated Gastric Fluid,8130 µg/mL
same,Solubility,[2]; Simulated Intestinal Fluid,2 µg/mL
same,Solubility,"[2]; citrate buffer, pH 2.5",0.2-0.3 mg/mL ^
same,dissolution rate,"[3]; in 15 min at pH 1.2, listed as hydrate",about 80%
same,dissolution rate,[3]; in 60 min at pH 2.5,about 20%
same,change in appearance,[4],No change in appearance
same,"change of water content, as determined by KF",[4],No significant change
same,XRPD form after maturation in acetic acid: water 1:1,"[5]; three days, listed as hydrate Form 2 of free base Compound 1",did not show any changes in form
same,XRPD form after maturation,"[6]; acetic acid: water 1:3, 25° C.",unchanged Form 2
same,XRPD form after maturation,"[6]; acetic acid: water 1:3, 90° C.",some evidence of the acetic acid solvate Form 6 mixed with a majority of Form 2
same,XRPD form after maturation,"[6]; pure water, 25° C.",unchanged Form 2
same,XRPD form after maturation,"[6]; pure water, 90° C.",Form 2
same,stability on storage at 25° C./93% RH,[7],stable
same,stability on storage at 25° C./93% RH,[7]; listed as Free base Form 2,mainly the same pattern with a few differences
same,volumes of solvent giving a clear solution,[8]; 2-methyltetrahydrofuran,50 volumes
same,volumes of solvent giving a clear solution,[8]; DCM,100 volumes
same,volumes of solvent giving a clear solution,[8]; DCM:methanol 1:1,100 volumes
same,volumes of solvent giving a clear solution,[8]; DME,100 volumes
same,volumes of solvent giving a clear solution,"[8]; DMSO, at RT",10 volumes
same,volumes of solvent giving a clear solution,[8]; THF,100 volumes
same,volumes of solvent giving a clear solution,[8]; THF:5% water,50 volumes
same,volumes of solvent giving a clear solution,[8]; acetonitrile/5% water,100 volumes
same,volumes of solvent giving a clear solution,"[8]; chloroform, RT",20 volumes
same,volumes of solvent giving a clear solution,"[8]; dioxane, 50° C.",10 volumes
same,volumes of solvent giving a clear solution,[8]; ethanol:anisole,50 volumes
same,volumes of solvent giving a clear solution,[8]; methanol,100 volumes
same,volumes of solvent giving a clear solution,"[8]; methanol:anisole 1:1, at RT",10 volumes
"COc1cc(-c2cccc3cc([C@H](C)Nc4nc(N)ncc4C#N)n(-c4ccccc4)c(=O)c23)ccn1 [bis-sulfuric acid monohydrate salt of (S)-2-amino-4-((1-(8-(2-methoxypyridin-4-yl)-1-oxo-2-phenyl-1,2-dihydroisoquinolin-3-yl)ethyl)amino)pyrimidine-5-carbonitrile]",GVS Single cycle,"[1]; hygroscopicity in words, 25° C.",Slightly hygroscopic
same,Solubility,"[2]; Simulated Gastric Fluid, thermodynamic from solid, read-out: Solubility",> 17000 µg/mL
same,Solubility,"[2]; Simulated Intestinal Fluid, fassgf or other biorelevant, thermodynamic from solid, read-out: Solubility",40 µg/mL
same,Solubility,"[2]; aqueous buffer, thermodynamic from solid, citrate buffer, pH 2.5, at 37° C., read-out: Solubility",> 12000 µg/mL
same,Solubility,"[2]; aqueous buffer, thermodynamic from solid, citrate buffer, pH 2.5, at RT, read-out: Solubility",> 12000 µg/mL
same,Solubility,"[2]; aqueous buffer, thermodynamic from solid, pH 1.65, 37° C., read-out: Solubility",> 12000 µg/mL
same,Solubility,"[2]; aqueous buffer, thermodynamic from solid, pH 1.65, RT, read-out: Solubility",> 12000 µg/mL
same,Solubility,"[2]; aqueous buffer, thermodynamic from solid, pH 1.9, 37° C., read-out: Solubility",> 12000 µg/mL
same,Solubility,"[2]; aqueous buffer, thermodynamic from solid, pH 1.9, RT, read-out: Solubility",> 12000 µg/mL
same,Solubility,"[2]; aqueous buffer, thermodynamic from solid, pH 2.5, 37° C., read-out: Solubility",> 12000 µg/mL
same,Solubility,"[2]; aqueous buffer, thermodynamic from solid, pH 2.5, RT, read-out: Solubility",> 12000 µg/mL
same,Solubility,"[2]; aqueous buffer, thermodynamic from solid, pH 3.0, 37° C., read-out: Solubility",3450 µg/mL
same,Solubility,"[2]; aqueous buffer, thermodynamic from solid, pH 3.0, RT, read-out: Solubility",1580 µg/mL
same,Solubility,"[2]; aqueous buffer, thermodynamic from solid, pH 3.8, 37° C., read-out: Solubility",280 µg/mL
same,Solubility,"[2]; aqueous buffer, thermodynamic from solid, pH 3.8, RT, read-out: Solubility",290 µg/mL
same,Solubility,"[2]; simulated gastric fluid, thermodynamic from solid, 0.1N HCl, 37° C., at saturation, read-out: Solubility",> 90000 µg/mL
same,Solubility,"[2]; thermodynamic from solid, Water (pH 1.16), read-out: Solubility",> 60000 µg/mL
same,solubility compared to the hydrate,[2]; up to pH 3,significantly higher solubility
same,dissolution rate,"[3]; in 15 min at pH 1.2, listed as bis-sulfuric acid salt",100%
same,dissolution rate,[3]; in 15 min at pH 2.5,100%
same,flowability compared to the hydrate,[9],improved flowability
same,Storage 40° C./75% RH,[10],salt Pattern 1
same,change in appearance,[4],No change in appearance
same,"change of water content, as determined by KF",[4],No significant change
same,changes on maturation of slurries,"[5]; 30 volumes of solvent, RT to 50° C., five days, all solvents other than acetic acid/water, methanol, ethanol/water",did not show any changes
same,Thermodynamic aqueous solubility,[11],> 51 mg/mL
same,volumes of solvent giving a clear solution,[12]; acetic acid/water 1:3 at 50° C.,5 volumes
same,volumes of solvent giving a clear solution,[12]; methanol at 50° C.,5 volumes
same,oral pharmacokinetics,[13],good oral pharmacokinetics
